Test results published in US11396517B1, “Exo-aza spiro inhibitors of menin-MLL interaction” (Janssen Pharmaceutica NV, priority 2017, dated 2022).

Tests used:
menin = target: T1, menin (Homo sapiens, UniProt O00255, T541A); assay: Menin/MLL homogenous time-resolved fluorescence (HTRF) assay; type: binding; conditions: location 2; read-out: (2) location 2 Menin HTRF assay (IC50 (nM))
T1 construct: Menin (a.a. 1-610-6×his tag)
T1 sequence (O00255 with tags, fused parts or gaps T541A): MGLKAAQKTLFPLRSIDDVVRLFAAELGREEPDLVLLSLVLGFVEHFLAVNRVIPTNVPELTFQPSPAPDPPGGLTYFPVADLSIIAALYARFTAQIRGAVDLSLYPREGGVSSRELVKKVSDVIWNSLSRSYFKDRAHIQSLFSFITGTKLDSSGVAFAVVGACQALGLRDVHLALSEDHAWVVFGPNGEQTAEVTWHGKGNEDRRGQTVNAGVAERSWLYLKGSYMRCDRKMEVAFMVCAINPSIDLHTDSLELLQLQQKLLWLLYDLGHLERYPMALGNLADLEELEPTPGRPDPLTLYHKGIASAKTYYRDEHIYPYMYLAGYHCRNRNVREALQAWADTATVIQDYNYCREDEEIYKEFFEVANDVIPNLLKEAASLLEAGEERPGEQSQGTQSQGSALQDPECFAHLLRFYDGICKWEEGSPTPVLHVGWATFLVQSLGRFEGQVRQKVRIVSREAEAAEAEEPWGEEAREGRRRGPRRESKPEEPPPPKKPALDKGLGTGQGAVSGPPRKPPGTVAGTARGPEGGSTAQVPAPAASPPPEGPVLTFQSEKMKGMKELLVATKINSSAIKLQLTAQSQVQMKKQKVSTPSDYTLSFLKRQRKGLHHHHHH
In short: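 Terbium-labeled menin (aa 1-610, His-tagged; […]) preincubated 5 min with compound, then 75 nM FITC-MBM1 peptide for 15 min, ambient, Tris pH 7.5, 0.5% DMSO. HTRF 520/490 ratio; 11-point 3-fold titration; IC50 from % inhibition fit.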

MOLM14 = assay: Proliferation assay A (spheroid assay) MOLM14; type: cell-based, human; conditions: Homo sapiens, MOLM-14, 192 h, MOLM14 cells, 8 d, AUC of confluence against time, absolute IC50; read-out: (3a) Spheroid assay MOLM14 (IC50(μM)) Assay A
In short: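 Spheroid growth in ultra-low-attachment round-bottom wells (1,500 MV-4-11, 300 MOLM14 or 750 K562 cells), compound titration at 0.3% DMSO, 8 d at 37° C. Confluence imaged every 4 h; AUC from t=0 baseline expressed as % of DMSO control and fitted for absolute IC50.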

## FC(F)(F)Cc1cc2c(N3CCC4(CC(Nc5ccc6cc[nH]c6c5)C4)C3)ncnc2s1 (mixture of isomers) [Compound 311]
menin
  IC50: 70.5 nM
MOLM14
  IC50: 3.98 µM

## O=c1[nH]c2cc(CNC3CCC4(C3)CN(c3ncnc5sc(CC(F)(F)F)cc35)C4)ccc2o1 (single isomer, unassigned) [Compound 58]
menin
  IC50: 2.9 nM

## Cn1c(=O)[nH]c2cc(CNC3CCC4(C3)CN(c3ncnc5sc(CC(F)(F)F)cc35)C4)ccc21 (stereo not shown) [Compound 54]
menin
  IC50: 1.8 nM
MOLM14
  IC50: 0.82 µM

## CNC(=O)c1ccc(NC2CC3(CCN(c4ncnc5sc(CC(F)(F)F)cc45)C3)C2)cc1 (stereo not shown) [Compound 93]
menin
  IC50: 5.8 nM
MOLM14
  IC50: 0.7 µM
